Assay results: patent publication US8329919B2, “Salt hydrates” (Novartis AG, priority 2002, dated 2012)
Where “and” joins values, the source holds several entries; their conditions need not be identical. Equal entries are not always repeated.

Experiment: Thermogravimetry: weight loss, i.e. water loss, as a function of temperature (thermobalance TGS-2)
Format: physicochemical
Details: heating rate 10 K·min^−1, water-free N2 atmosphere
Procedure: Using thermogravimetry, in a water-free N2 atmosphere, the weight loss, i.e. the water loss for the tetrahydrate of the calcium salt of valsartan A1,Ca as a function of temperature, was measured at a heating rate of 10 K·min^−1. […]
Using thermogravimetry, in a water-free N2 atmosphere, the weight loss, i.e. the water loss for the trihydrate of the calcium salt of valsartan in the polymorphic form B1,Ca as a function of temperature, was measured at a heating rate of 10 K·min^−1.
(§1) Using thermogravimetry, in a water-free N2 atmosphere, the weight loss, i.e. the water loss for the trihydrate B2,Ca as a function of temperature, was measured at a heating rate of 10 K·min^−1. The results for the polymorph B2,Ca of the trihydrate of the calcium salt of valsartan are illustrated in table 4.
as §1, with “B3,Ca” for “B2,Ca”, “polymorphic form B3,Ca” for “polymorph B2,Ca”, “5.” for “4.”
Using thermogravimetry, in a water-free N2 atmosphere, the weight loss, i.e. the water loss for the di-(calcium salt of valsartan) pentahydrate D1,Ca as a function of temperature, was measured at a heating rate of 10 K·min^−1.
The instrument used for the calorimetric data is throughout a DSC Pyris 1 (Differential Scanning calorimeter) obtained from Perkin-Elmer Corp., Norwalk, Conn. USA. The measurements are performed with samples enclosed in a sealed gold specimen container with an internal free volume of ca. 22 microliters, with a sample weight of 2 to 4 mg and with a heating rate of Tr=10K·min^−1. […] The instrument used was a TGS-2 (Perkin-Elmer Corp., Norwalk, Conn. USA) and the measurement was performed in a water free atmosphere. The heating rate selected was 10 K·min^−1. The weight loss is illustrated in table 7.
The heating rate selected was 10K·min^−1.
Using thermogravimetry, in a water-free N2 atmosphere, the weight loss, i.e. the water loss for the tetrahydrate as a function of temperature, was measured at a heating rate of 10 K·min^−1. The results for the calcium salt of valsartan tetrahydrate A0,Ca are listed in the following: […]
Using thermogravimetry, in a water-free N2 atmosphere, the weight loss, i.e. the water loss for the tetrahydrate of the calcium salt of valsartan as a function of temperature, was measured at a heating rate of 10 K·min^−1.

| Compound | weight loss or water loss in % (temperature 200 °C) | weight loss or water loss in % (temperature 25 °C) | weight loss or water loss in % (temperature 50 °C) | weight loss or water loss in % (temperature 75 °C) | weight loss or water loss in % (temperature 100 °C) | weight loss or water loss in % (temperature 125 °C) | weight loss or water loss in % (temperature 150 °C) | weight loss or water loss in % (temperature 175 °C) | weight loss or water loss in % (temperature 225 °C) | weight loss or water loss in % (temperature 250 °C) | weight loss or water loss in % (temperature 275 °C) | also measured |
| --- | --- | --- | --- | --- | --- | --- | --- | --- | --- | --- | --- | --- |
| (S)—N-(1-carboxy-2-methyl-prop-1-yl)-N-pentanoyl-N-[2′-(1H-tetrazol-5-yl)-biphenyl-4-ylmethyl]-amine calcium salt trihydrate [B1,Ca] | 9.7% |  |  |  |  |  |  |  |  |  |  | weight loss or water loss in % (temperature 25 °C, calcium salt trihydrate): 0.4 ± 0.3% and 0.5%; weight loss or water loss in % (temperature 50 °C, calcium salt trihydrate): 2.0 ± 0.5% and 2.0%; weight loss or water loss in % (temperature 75 °C, calcium salt trihydrate): 4.0 ± 0.5% and 3.9%; weight loss or water loss in % (temperature 100 °C, calcium salt trihydrate): 6.3 ± 0.5% and 5.7%; weight loss or water loss in % (temperature 125 °C, calcium salt trihydrate): 8.5 ± 0.5% and 8.1%; weight loss or water loss in % (temperature 150 °C, calcium salt trihydrate): 9.5 ± 0.5% and 9.2%; weight loss or water loss in % (temperature 175 °C, calcium salt trihydrate): 9.7 ± 0.5% and 9.5%; weight loss or water loss in % (temperature 200 °C, calcium salt trihydrate): 9.9 ± 0.5%; weight loss or water loss in % (temperature 225 °C, calcium salt trihydrate): 9.9 ± 0.5% and 9.7%; weight loss or water loss in % (temperature 250 °C, calcium salt trihydrate): 10.0 ± 0.5% and 9.9%; weight loss or water loss in % (temperature 275 °C, calcium salt trihydrate): 10.3 ± 0.5% and 10.2% |
| CCCCC(=O)N(Cc1ccc(-c2ccccc2-c2nnn[nH]2)cc1)[C@H](C(=O)O)C(C)C [B1,Mg, (S)—N-(1-carboxy-2-methyl-prop-1-yl)-N-pentanoyl-N-[2′-(1H-tetrazol-5-yl)-biphenyl-4-ylmethyl]-amine] | 12.8 ± 0.5% | 0 ± 0.1% | 2.1 ± 0.3% | 6.5 ± 0.5% | 9.5 ± 0.5% | 11.1 ± 0.5% | 12.0 ± 0.5% | 12.5 ± 0.5% | 13.0 ± 0.5% | 13.6 ± 0.5% | 14.3 ± 0.5% |  |
| CCCCC(=O)N(Cc1ccc(-c2ccccc2-c2nnn[nH]2)cc1)[C@H](C(=O)O)C(C)C [A1,Mg, (S)—N-(1-carboxy-2-methyl-prop-1-yl)-N-pentanoyl-N-[2′-(1H-tetrazol-5-yl)-biphenyl-4-ylmethyl]-amine] | 17.1 ± 0.5% and 17.2% | 0.1 ± 0.1% and 0% | 1.0 ± 0.3% and 0.9% | 6.8 ± 0.5% and 6.8% | 14.1 ± 0.5% and 14.3% | 15.6 ± 0.5% and 15.7% | 16.4 ± 0.5% and 16.5% | 16.9 ± 0.5% and 17.0% | 17.3 ± 0.5% and 17.4% | 17.6 ± 0.5% and 17.8% | 18.3 ± 0.5% and 18.3% |  |
| (S)—N-(1-carboxy-2-methyl-prop-1-yl)-N-pentanoyl-N-[2′-(1H-tetrazol-5-yl)-biphenyl-4-ylmethyl]-amine calcium salt tetrahydrate [A1,Ca] | 13.3 ± 0.5% and 13.3% | 1.1 ± 0.5% and 1.1% | 3.3 ± 0.5% and 3.3% | 5.1 ± 0.5% and 5.1% | 9.6 ± 1.0% and 9.6% | 12.2 ± 0.5% and 12.1% | 12.9 ± 0.5% and 12.9% | 13.2 ± 0.5% and 13.2% | 13.4 ± 0.5% and 13.4% | 13.3 ± 0.5% and 13.3% | 13.7 ± 0.5% and 13.7% |  |
| (S)—N-(1-carboxy-2-methyl-prop-1-yl)-N-pentanoyl-N-[2′-(1H-tetrazol-5-yl)-biphenyl-4-ylmethyl]-amine calcium salt trihydrate [B2,Ca] | 9.7% | 0% |  |  |  |  |  |  |  |  |  | weight loss or water loss in % (temperature 25 °C, calcium salt trihydrate, crystalline trihydrate B2,Ca polymorph): 0.1 ± 0.2%; weight loss or water loss in % (temperature 50 °C, calcium salt trihydrate, crystalline trihydrate B2,Ca polymorph): 0.9 ± 0.3%; weight loss or water loss in % (temperature 75 °C, calcium salt trihydrate, crystalline trihydrate B2,Ca polymorph): 2.2 ± 0.5%; weight loss or water loss in % (temperature 100 °C, calcium salt trihydrate, crystalline trihydrate B2,Ca polymorph): 5.8 ± 0.5%; weight loss or water loss in % (temperature 125 °C, calcium salt trihydrate, crystalline trihydrate B2,Ca polymorph): 8.9 ± 0.5%; weight loss or water loss in % (temperature 150 °C, calcium salt trihydrate, crystalline trihydrate B2,Ca polymorph): 9.9 ± 0.5%; weight loss or water loss in % (temperature 175 °C, calcium salt trihydrate, crystalline trihydrate B2,Ca polymorph): 10.2 ± 0.5%; weight loss or water loss in % (temperature 200 °C, calcium salt trihydrate, crystalline trihydrate B2,Ca polymorph): 10.3 ± 0.5%; weight loss or water loss in % (temperature 225 °C, calcium salt trihydrate, crystalline trihydrate B2,Ca polymorph): 10.5 ± 0.5%; weight loss or water loss in % (temperature 250 °C, calcium salt trihydrate, crystalline trihydrate B2,Ca polymorph): 10.5 ± 0.5%; weight loss or water loss in % (temperature 275 °C, calcium salt trihydrate, crystalline trihydrate B2,Ca polymorph): 10.8 ± 0.5% |
| CCCCC(=O)N(Cc1ccc(-c2ccccc2-c2nnn[nH]2)cc1)[C@H](C(=O)O)C(C)C [A0,Mg, (S)—N-(1-carboxy-2-methyl-prop-1-yl)-N-pentanoyl-N-[2′-(1H-tetrazol-5-yl)-biphenyl-4-ylmethyl]-amine] | 18.5% | 0.0% | 1.2% | 4.2% | 11.0% | 16.7% | 17.7% | 18.3% | 18.7% | 18.9% | 19.3% |  |
| (S)—N-(1-carboxy-2-methyl-prop-1-yl)-N-pentanoyl-N-[2′-(1H-tetrazol-5-yl)-biphenyl-4-ylmethyl]-amine calcium salt tetrahydrate [A0,Ca] | 12.9% | 0% | 0% | 0.5% | 3.5% | 10.2% | 12.4% | 12.8% | 13.0% | 13.3% | 13.2% |  |
| CCCCC(=O)N(Cc1ccc(-c2ccccc2-c2nn[n-]n2)cc1)[C@H](C(=O)[O-])C(C)C.CCCCC(=O)N(Cc1ccc(-c2ccccc2-c2nn[n-]n2)cc1)[C@H](C(=O)[O-])C(C)C.O.O.O.O.O.[Ca+2].[Ca+2] [D1,Ca, di-{calcium salt of (S)—N-(1-carboxy-2-methyl-prop-1-yl)-N-pentanoyl-N-[2′-(1H-tetrazol-5-yl)-biphenyl-4-ylmethyl]-amine}pentahydrate] | 8.2 ± 0.5% and 8.0% | 0.1 ± 0.1% and 0.1% | 1.3 ± 0.3% and 1.7% | 2.8 ± 0.5% and 3.3% | 5.1 ± 0.5% and 5.1% | 7.4 ± 0.5% and 7.1% | 8.0 ± 0.5% and 7.7% | 8.1 ± 0.5% and 7.9% | 8.2 ± 0.5% and 8.1% | 8.3 ± 0.5% and 8.3% | 8.6 ± 0.5% and 8.6% |  |
